Earlier results as cited in US20190192686A1, “TARGETED NANODROPLET EMULSIONS FOR TREATING CANCER” (The University of Louisville Research Foundation,, priority 2016, published 2019).

Target: plasma membrane nucleolin (Homo sapiens, UniProt P19338)
Design: key: ^1: Indicates a good plasma membrane nucleolin-binding GRO.; ^2: Indicates a nucleolin control (non-plasma membrane nucleolin binding)
Conditions: superscript designation in Table 1

Sequence of plasma membrane nucleolin (P19338 whole entry): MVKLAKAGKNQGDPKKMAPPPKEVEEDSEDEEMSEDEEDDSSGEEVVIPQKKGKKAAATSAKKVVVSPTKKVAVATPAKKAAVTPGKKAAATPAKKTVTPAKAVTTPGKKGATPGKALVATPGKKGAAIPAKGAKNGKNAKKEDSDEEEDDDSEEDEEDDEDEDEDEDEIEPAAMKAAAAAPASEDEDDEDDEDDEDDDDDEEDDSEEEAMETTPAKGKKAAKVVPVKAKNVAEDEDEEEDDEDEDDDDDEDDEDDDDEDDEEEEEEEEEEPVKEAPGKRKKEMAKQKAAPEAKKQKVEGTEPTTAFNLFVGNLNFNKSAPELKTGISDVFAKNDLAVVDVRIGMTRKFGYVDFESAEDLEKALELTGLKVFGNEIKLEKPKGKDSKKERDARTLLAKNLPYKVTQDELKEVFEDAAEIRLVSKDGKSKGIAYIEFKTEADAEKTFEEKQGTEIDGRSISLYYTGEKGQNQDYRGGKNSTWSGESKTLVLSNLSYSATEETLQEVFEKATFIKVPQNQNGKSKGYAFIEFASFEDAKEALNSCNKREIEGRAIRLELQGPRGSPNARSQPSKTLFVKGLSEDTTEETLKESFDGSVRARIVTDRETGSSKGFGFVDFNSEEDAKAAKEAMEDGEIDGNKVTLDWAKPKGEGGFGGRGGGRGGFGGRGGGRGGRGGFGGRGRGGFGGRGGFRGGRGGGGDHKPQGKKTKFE

Substance	plasma membrane nucleolin binding
GRO15B: ttgggggggg tgggt (TTGGGGGGGGTGGGT; listed as DNA, chemistry not fully specified)	GRO15B^2
GRO26B: ggtggtggtg gttgtggtgg tggtgg	GRO26B^1
GRO G: ggttggtgtg gttgg	GRO G^1
GRO H: ggggttttgg gg (DNA GGGGTTTTGGGG; listed as DNA, chemistry not fully specified)	GRO H^1
GRO I: gggttttggg (DNA GGGTTTTGGG; listed as DNA, chemistry not fully specified)	GRO I^1
GRO J: ggggttttgg ggttttgggg ttttgggg (DNA GGGGTTTTGGGGTTTTGGGGTTTTGGGG; listed as DNA, chemistry not fully specified)	GRO J^1
GRO K: ttggggttgg ggttggggtt gggg (DNA TTGGGGTTGGGGTTGGGGTTGGGG; listed as DNA, chemistry not fully specified)	GRO K^1
GRO M: ggttttggtt ttggttttgg ttttgg (GGTTTTGGTTTTGGTTTTGGTTTTGG; aptamer; listed as DNA, chemistry not fully specified)	GRO M^1
GRO N: tttcctcctc ctccttctcc tcctcctcc (TTTCCTCCTCCTCCTTCTCCTCCTCCTCC; listed as DNA, chemistry not fully specified)	GRO N^2
GRO O: cctcctcctc cttctcctcc tcctcc (CCTCCTCCTCCTTCTCCTCCTCCTCC; aptamer; listed as DNA, chemistry not fully specified)	GRO O^2
GRO P: tggggt	GRO P^2
GRO Q: gcatgct (GCATGCT; listed as DNA, chemistry not given here)	GRO Q^2
GRO R: gcggtttgcg g (GCGGTTTGCGG; listed as DNA, chemistry not given here)	GRO R^2
GRO S: tagg (TAGG; listed as DNA, chemistry not given here)	GRO S^2
GRO T: ggggttgggg tgtggggttg ggg (GGGGTTGGGGTGTGGGGTTGGGG; listed as DNA, chemistry not given here)	GRO T^2
